From PMC7073924, “2-Aminomethylene-5-sulfonylthiazole Inhibitors of Lysyl Oxidase (LOX) and LOXL2 Show Significant Efficacy in Delaying Tumor Growth” (Journal of Medicinal Chemistry, 2019)
“And” between values parts separate entries of the source, which are not always exact repeats. Equal entries are not always repeated. Structures can show the parent of a compound that is named as a salt. Where two headings read alike, the source gives them in different places.

Legend:
LOXL3 [1] = biological target: T1, LOXL3 (Homo sapiens, UniProt P58215); assay: LOXL3 enzyme assay (Promega ROS-Glo, cadaverine substrate); assay type: biochemical
T1 sequence (P58215 26-753): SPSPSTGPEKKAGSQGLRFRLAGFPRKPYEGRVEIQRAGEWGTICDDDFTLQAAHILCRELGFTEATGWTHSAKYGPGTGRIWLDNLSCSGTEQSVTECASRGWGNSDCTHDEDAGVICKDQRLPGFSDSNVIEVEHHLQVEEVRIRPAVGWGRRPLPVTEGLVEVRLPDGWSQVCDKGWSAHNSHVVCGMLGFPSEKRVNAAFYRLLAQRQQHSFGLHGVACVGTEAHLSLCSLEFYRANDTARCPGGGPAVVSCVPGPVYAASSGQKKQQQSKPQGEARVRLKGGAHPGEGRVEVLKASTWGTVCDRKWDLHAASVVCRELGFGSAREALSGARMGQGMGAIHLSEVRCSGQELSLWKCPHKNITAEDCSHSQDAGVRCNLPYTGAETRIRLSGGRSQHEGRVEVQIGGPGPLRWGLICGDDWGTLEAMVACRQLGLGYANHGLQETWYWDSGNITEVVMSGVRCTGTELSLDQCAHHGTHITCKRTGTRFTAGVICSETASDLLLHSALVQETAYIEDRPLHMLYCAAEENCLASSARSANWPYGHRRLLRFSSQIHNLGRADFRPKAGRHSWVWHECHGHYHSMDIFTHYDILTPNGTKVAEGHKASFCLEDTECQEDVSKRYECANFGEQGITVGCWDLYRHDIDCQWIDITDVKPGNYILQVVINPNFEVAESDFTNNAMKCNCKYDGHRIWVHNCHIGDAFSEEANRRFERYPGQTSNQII
Method: (§1) LOXL2 and LOXL3 were purchased from R&D Systems. LOX, LOXL2, and LOXL3 catalytic activity were determined using the Promega ROS-Glo assay kit with cadaverine dihydrochloride as substrate, BAPN as the reference inhibitor control, a preincubation time of 20 min, 1 h, or 3 h, with nine dilutions from a top concentration of 10 μM or 100 μM.

LOXL2 [2] = biological target: T2, LOXL2 (Homo sapiens, UniProt Q9Y4K0); assay type: biochemical
T2 sequence (Q9Y4K0 26-774): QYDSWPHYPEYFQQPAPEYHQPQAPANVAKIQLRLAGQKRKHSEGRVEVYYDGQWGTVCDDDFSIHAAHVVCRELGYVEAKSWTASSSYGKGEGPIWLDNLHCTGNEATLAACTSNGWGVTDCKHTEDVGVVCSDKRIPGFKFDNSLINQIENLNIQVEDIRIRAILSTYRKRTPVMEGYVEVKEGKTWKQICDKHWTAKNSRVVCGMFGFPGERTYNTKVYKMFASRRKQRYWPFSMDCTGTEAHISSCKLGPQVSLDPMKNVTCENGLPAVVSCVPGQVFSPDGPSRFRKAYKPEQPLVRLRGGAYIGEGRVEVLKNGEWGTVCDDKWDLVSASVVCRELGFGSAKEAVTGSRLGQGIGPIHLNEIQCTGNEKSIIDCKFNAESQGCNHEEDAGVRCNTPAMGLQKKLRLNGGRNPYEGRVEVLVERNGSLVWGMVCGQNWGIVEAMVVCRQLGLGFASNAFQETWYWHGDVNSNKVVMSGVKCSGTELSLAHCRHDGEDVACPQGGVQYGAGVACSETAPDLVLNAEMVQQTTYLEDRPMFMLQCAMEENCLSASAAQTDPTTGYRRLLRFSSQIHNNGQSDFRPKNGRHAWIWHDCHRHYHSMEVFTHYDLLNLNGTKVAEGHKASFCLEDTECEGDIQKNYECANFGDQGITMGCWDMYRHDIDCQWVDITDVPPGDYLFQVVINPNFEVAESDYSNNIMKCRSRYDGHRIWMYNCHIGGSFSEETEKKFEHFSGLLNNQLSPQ
Method: The enzyme/inhibitor mixture was then diluted 100-fold into a solution containing all enzyme reaction components, and the activity of the enzyme was assessed.
LOXL2 catalytic activity was determined using the Amplex Red hydrogen peroxide assay kit with cadaverine dihydrochloride as substrate. […] The enzyme/inhibitor mixture was then diluted 100-fold into a solution containing substrate and detection reagents and read kinetically every 5 min.

LOXL2 [3] = biological target: T2, LOXL2; assay: LOXL2 enzyme assay (Promega ROS-Glo, cadaverine substrate); assay type: biochemical
Method: as §1

LOX = biological target: T3, LOX (Sus scrofa, UniProt P45845); assay: LOX enzyme assay (Promega ROS-Glo, cadaverine substrate); assay type: biochemical, pig
T3 sequence (P45845 1-249): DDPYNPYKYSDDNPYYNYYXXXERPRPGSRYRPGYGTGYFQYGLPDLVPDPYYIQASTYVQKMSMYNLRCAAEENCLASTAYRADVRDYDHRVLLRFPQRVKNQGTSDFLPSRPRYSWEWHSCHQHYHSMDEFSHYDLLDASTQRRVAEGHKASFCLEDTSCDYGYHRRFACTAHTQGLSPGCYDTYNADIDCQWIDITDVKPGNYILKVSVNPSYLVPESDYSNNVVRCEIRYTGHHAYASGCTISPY
Method: as §1

LOXL3 [4] = biological target: T1, LOXL3; parameters: method as in PMID 30536539, PMID 28471663; details: literature compounds; cited from earlier work
SSAO [5] = biological target: T4, SSAO (Homo sapiens, UniProt Q16853); assay type: biochemical
T4 construct: purchased Sigma
T4 sequence (Q16853 1-763): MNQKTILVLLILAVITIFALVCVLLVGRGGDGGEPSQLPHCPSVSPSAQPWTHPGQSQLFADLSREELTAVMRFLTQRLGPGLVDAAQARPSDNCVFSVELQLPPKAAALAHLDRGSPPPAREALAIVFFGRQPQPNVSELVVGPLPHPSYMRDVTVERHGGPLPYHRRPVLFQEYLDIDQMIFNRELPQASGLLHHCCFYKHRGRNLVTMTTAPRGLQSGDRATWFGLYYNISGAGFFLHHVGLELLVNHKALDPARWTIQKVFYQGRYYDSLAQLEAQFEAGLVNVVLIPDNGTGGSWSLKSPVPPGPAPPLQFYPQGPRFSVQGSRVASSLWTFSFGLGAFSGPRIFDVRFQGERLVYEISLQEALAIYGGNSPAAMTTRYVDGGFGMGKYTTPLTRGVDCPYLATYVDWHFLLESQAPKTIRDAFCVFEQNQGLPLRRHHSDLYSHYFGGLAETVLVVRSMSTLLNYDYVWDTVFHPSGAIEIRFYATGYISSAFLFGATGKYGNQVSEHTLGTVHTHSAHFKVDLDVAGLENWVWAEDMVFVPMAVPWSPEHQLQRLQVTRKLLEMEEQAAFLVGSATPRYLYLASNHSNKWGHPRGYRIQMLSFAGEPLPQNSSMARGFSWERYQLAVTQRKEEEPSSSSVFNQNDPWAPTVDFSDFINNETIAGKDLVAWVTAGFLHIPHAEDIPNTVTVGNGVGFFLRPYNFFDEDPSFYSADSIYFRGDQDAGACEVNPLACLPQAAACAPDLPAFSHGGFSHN
Method: (§2) All amine oxidase assays were performed with concentrations as above. MAO-A and MAO-B enzymes were purchased from Sigma. The catalytic activity of MAO-A and MAO-B was determined using the Promega MAO-Glo assay kit (substrate included), with clorgyline and deprenyl as reference inhibitor controls, respectively. DAO was purchased from Sigma, and the catalytic activity was determined using the Promega ROS-Glo assay kit, with aminoguanidine as the reference inhibitor control. SSAO was purchased from Sigma. SSAO catalytic activity was determined using the Promega MAO-Glo assay kit, with mofegiline as the reference inhibitor control.

MAO-B = biological target: T5, MAO-B (Homo sapiens, UniProt P27338); assay type: biochemical; details: Table 7
T5 construct: purchased Sigma
T5 sequence (P27338 1-520): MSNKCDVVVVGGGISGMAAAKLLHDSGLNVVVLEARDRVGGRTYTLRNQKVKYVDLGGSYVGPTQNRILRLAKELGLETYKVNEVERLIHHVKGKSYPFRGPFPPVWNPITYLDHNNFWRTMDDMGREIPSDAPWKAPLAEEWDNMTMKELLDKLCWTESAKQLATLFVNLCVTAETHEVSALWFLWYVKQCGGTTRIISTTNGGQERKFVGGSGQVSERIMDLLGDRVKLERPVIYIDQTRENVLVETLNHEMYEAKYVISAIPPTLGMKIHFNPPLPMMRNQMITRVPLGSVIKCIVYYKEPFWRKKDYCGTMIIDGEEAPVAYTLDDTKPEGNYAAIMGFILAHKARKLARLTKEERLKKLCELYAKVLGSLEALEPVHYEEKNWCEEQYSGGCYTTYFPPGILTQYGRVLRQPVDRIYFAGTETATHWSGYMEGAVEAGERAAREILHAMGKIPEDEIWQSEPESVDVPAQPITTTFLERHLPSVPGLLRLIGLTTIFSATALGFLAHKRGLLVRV
Method: as §2

DAO = biological target: T6, DAO (Sus scrofa, UniProt Q9TRC7); assay type: biochemical; details: Table 7
T6 construct: purchased Sigma
T6 sequence (Q9TRC7 25-755): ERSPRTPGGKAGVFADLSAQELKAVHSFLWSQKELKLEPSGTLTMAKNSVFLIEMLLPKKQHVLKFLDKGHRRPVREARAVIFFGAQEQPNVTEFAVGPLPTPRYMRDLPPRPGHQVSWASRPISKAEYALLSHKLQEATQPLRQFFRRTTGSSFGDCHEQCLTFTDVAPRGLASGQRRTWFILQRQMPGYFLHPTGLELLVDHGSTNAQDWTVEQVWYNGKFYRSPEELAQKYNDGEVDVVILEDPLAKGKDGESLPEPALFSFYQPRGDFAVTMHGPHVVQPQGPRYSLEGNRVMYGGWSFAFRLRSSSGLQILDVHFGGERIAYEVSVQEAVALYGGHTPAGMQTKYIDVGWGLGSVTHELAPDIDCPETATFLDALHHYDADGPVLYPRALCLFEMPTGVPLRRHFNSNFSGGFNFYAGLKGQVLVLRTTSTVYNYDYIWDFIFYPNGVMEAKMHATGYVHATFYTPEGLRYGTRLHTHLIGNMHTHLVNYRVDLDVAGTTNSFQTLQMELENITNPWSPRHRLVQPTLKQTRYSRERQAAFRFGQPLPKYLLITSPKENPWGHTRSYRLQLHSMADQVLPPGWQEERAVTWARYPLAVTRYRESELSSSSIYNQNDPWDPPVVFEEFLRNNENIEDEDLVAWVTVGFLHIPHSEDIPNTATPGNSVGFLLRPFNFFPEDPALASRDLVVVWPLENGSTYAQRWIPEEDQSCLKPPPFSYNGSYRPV
Method: as §2

MAO-A = biological target: T7, MAO-A (Homo sapiens, UniProt P21397); assay type: biochemical; details: Table 7
T7 construct: purchased Sigma
T7 sequence (P21397 1-527): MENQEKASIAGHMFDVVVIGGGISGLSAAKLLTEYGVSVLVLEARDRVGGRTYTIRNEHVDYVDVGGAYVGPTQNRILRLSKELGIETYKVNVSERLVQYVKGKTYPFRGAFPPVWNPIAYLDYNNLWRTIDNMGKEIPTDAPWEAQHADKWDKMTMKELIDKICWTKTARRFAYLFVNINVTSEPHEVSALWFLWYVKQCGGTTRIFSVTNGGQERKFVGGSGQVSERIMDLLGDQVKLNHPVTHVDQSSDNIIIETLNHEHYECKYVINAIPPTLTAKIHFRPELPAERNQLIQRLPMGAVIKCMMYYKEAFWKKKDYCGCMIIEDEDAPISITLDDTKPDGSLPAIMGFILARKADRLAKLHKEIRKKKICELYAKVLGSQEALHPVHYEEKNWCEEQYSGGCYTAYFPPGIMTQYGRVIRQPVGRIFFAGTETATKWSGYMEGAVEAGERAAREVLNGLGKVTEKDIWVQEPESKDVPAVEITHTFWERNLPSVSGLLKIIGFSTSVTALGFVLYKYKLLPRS
Method: as §2

SSAO [6] = biological target: T4, SSAO; assay: Assessment of compound as a substrate for SSAO (Amplex red); assay type: biochemical; details: hydrogen peroxide quantified with Amplex red kit; benzylamine positive control
[7] = supplementary csv, unit inferred

N#CCCN [BAPN, β-aminopropionitrile, reference compound]
IC50 (LOXL3 [1]): 0.31 µM
LOXL2 inhibition at 10 × IC50 before dilution (LOXL2 [2]): complete inhibition
mode of LOXL2 inhibition (LOXL2 [2]): irreversible inhibitor
IC50 (LOXL2 [3]; read-out: LOXL2, 20 min, IC50): 4.26 µM
IC50 (LOXL2 [3]; read-out: LOXL2, 1 h, IC50): 0.665 µM
IC50 (LOXL2 [3]; read-out: LOXL2, 3 h, IC50): 0.372 µM
IC50 (LOXL2 [3]; read-out: LOXL2 IC50): 0.665 µM
IC50 (LOX): 3.14 µM

Cc1c(-c2cccc(S(=O)(=O)N(C)C)c2)c2ncccc2n1C/C(F)=C/CN [Compound 1]
activity for LOXL2 and LOXL3 within x-fold (LOXL3 [4]): ≤ 3 fold

NCc1cc(Oc2cccc(C(=O)N3C[C@@H](O)[C@H](F)C3)c2)nc(C(F)(F)F)c1 [Compound 2]
activity for LOXL2 and LOXL3 within x-fold (LOXL3 [4]): ≤ 3 fold

Cn1cc(-c2cc(S(C)(=O)=O)cc(S(=O)(=O)c3cnc(CN)s3)c2)cn1 [Compound 21a, (5-((3-(1-Methyl-1H-pyrazol-4-yl)-5-(methylsulfonyl)phenyl)sulfonyl)thiazol-2-yl)methanamine Hydrochloride]
IC50 (SSAO [5]; Table 7): 13.3 µM and 17.2 µM
IC50 (LOXL3 [1]): 1.22 µM and 1.51 µM
IC50 (LOXL3 [1]; Table 6, 1 h preincubation): ~1 µM
IC50 (MAO-B): > 100 µM
IC50 (DAO): > 100 µM
IC50 (LOX; Table 6, 1 h preincubation): 3.42 µM and 2.65 µM
IC50 (MAO-A): > 100 µM

CCc1cc(-c2cnn(C)c2)cc(S(=O)(=O)c2cnc(CN)s2)c1 [Compound 21b, (5-((3-Ethyl-5-(1-methyl-1H-pyrazol-4-yl)phenyl)sulfonyl)thiazol-2-yl)methanamine Hydrochloride]
IC50 (SSAO [5]): 28.6 µM and 19.6 µM
substrate of SSAO (SSAO [6]): not a substrate of SSAO

CS(=O)(=O)c1cc(-c2ccccc2)cc(S(=O)(=O)c2csc(CN)n2)c1 [Compound 22b, (4-((5-(Methylsulfonyl)-[1,1′-biphenyl]-3-yl)sulfonyl)thiazol-2-yl)methanamine Hydrochloride]
IC50 (SSAO [5]; Table 7): > 100 µM
IC50 (LOXL3 [1]): 3.86 µM and 4.26 µM
IC50 (MAO-B): > 100 µM
IC50 (DAO): > 100 µM
IC50 (LOX; Table 6, 1 h preincubation): > 100 µM
IC50 (LOX; [7]): > 100 µM
IC50 (MAO-A): > 100 µM

Cn1cc(-c2cc(S(C)(=O)=O)cc(S(=O)(=O)c3csc(CN)n3)c2)cn1 [Compound 22c, (4-((3-(1-Methyl-1H-pyrazol-4-yl)-5-(methylsulfonyl)phenyl)sulfonyl)thiazol-2-yl)methanamine Hydrochloride]
IC50 (SSAO [5]; Table 7): > 100 µM
IC50 (LOXL3 [1]): 7.56 µM and 6.69 µM
IC50 (MAO-B): > 100 µM
IC50 (DAO): > 100 µM
IC50 (LOX; Table 6, 1 h preincubation): > 100 µM
IC50 (LOX; [7]): > 100 µM
IC50 (MAO-A): > 100 µM
